# Measurements: patent publication US7071158B2, “Antioxidant enhancement of therapy for hyperproliferative conditions” (Atherogenics, Inc., priority 1997, dated 2006)
# B1: I2: a selective PP1 inhibitor (protein, UniProt P41236 2-205, looked up)
# Protein phosphatase inhibitor …: AASTASHRPIKGILKNKTSTTSSMVASAEQPRGNVDEELSKKSQKWDEMNILATYHPADKDYGLMKIDEPSTPYHSMMGDDEDACSDTEATEAMAPDILARKLAAAEGLEPKYRIQEQESSGEEDSDLSPEEREKKRQFEMKRKLHYNEGLNIKLARQLISKDLHDDDEDEEMLETADGESMNTEESNQGSTPSDQQQNKLRSS
# Experiments:
# [1] = system: HCT 116 CRC tumor xenografts; experiment: HCT 116 tumor xenografts in athymic mice; type: in vivo; conditions: for tumor volume compared to saline-treated controls: single agents, 6 weeks
# Protocol: HCT 116 CRC cells were injected subcutaneously between the scapula of nu/nu mice. Once tumors reached approximately 150 mm^3, the animals either received weekly i.p. injections of pyrrolidinedithiocarbamate (70 μM) or vitamin E (3 MM), 5-FU (40 mg/kg) or saline, or both an antioxidant and 5-FU. Tumor volume was calculated weekly.
# (§5) Male athymic Balb/c nu/nu mice were obtained from the Harlan Sprague-Dawley Company at 4–6 weeks of age and were quarantined for at least 2 weeks before the study. […] HCT 116 and HCT 15 CRC cell lines were grown in DMEM supplemented with 10% FBS as described above. Cells were harvested through two consecutive trypsinizations, centrifuged at 300 g for 5 minutes, washed twice, and resuspended in sterile phosphate buffered saline. One ×10^6 cells in 0.2 ml were injected subcutaneously between the scapula of 7- to 10-week-old male nude mice.
# (§6) Tumor volumes were estimated weekly by measuring the maximal length, width, and height. Once tumors reached a mean size of 120 to 150 mm^3, animals received either weekly i.p. injections of pyrrolidinedithiocarbamate (70 μM) or vitamin E (3 mM), 5-FU (40 mg/kg) or saline, or a combination of pyrrolidinedithiocarbamate or vitamin E and 5-FU or 6 weeks. In cross-over experiments, animals received the above treatments for three weeks (with the exception of vitamin E), and then were crossed-over to either the combination treatment of pyrrolidinedithiocarbamate and 5-FU (saline, pyrrolidinedithiocarbamate or 5-FU alone) or discontinued treatment pyrrolidinedithiocarbamate and 5-FU) for the remaining three weeks of the experiment. […] Tumor volumes were recorded weekly until termination of the study.
# Tumor tissues were fixed overnight in 4% (v/v) paraformaldehyde and embedded in paraffin according to standard histological procedures. […] TdT labeling of fragmented DNA (TUNEL) was performed as described. The proliferative index (BrDU) and the apoptotic index (TUNEL) were estimated by the percentage of cells scored under a microscope at 200-fold magnification.
# [2] = system: HCT 15 cells; experiment: Apoptotic index (TUNEL) with or without induced C/EBPβ overexpression; type: cell-based, human; conditions: 5-FU 1.5 μM or doxorubicin 0.1 μM, 24 hours
# Protocol: Control HCT 15 cells and the sense C/EBPβ cell line were induced with 10 μM muristerone A and exposed to either 5-FU (1.5 μM) or doxorubicin (0.1 μM) for 24 hours. The apoptotic index was calculated as described in FIG. 4C.
# Finally, the functional role of C/EBPβ was examined in the apoptotic signaling pathway by generating lines of HCT 15 cells that were stably transfected with the human C/EBPβ cDNA, in both the sense and antisense orientation, under the control of an ecdysone inducible promoter. To avoid the possibility that constitutively expressed C/EBPβ might induce cell death, and ecdysone (muristerone A)-inducible expression system (Invitrogen, Carlsbad, Calif.) was used. Human C/EBPβ cDNA was subcloned into pIND at convenient enzyme cleavage ites. Constructs, containing sense and antisense C/EBPβ sequences were verified by double-stranded DNA sequencing. Before transfection, pIND-C/EBPβ constructs were linearized with Pme I and purified. HCT 15 cells were transfected with 5 μg of pVgRXR (Invitrogen) and 10 μg of pIND-C/EBPβ using CELLFECTIN according to manufacture's instructions. After 24 hours, cells were shifted to medium supplemented with 1 mg/ml Geneticin and […] puromycin (GIBCO BRL) to select for transfectant clones. After 2 weeks, antibiotic-resistant cells were subcloned by limiting dilution. The expression of C/EBPβ protein and the subsequent induction of p21^WAF1/CIP1 was determined following induction with 10 μM muristerone A for 24 hours and Western blot analysis.
# [3] = system: advanced, frequently mutant p53-containing colorectal cancer tumors; conditions: patients with advanced; cited from earlier work
# [4] = system: HCT 15-derived tumors; experiment: HCT 15 tumor xenografts in athymic mice; type: in vivo
# Protocol: HCT 15-derived tumors were generated as described above. Animals were then treated with pyrrolidinedithiocarbamate, in the presence or absence of 5-FU, for 3 weeks. At this point, treatments were discontinued in animals receiving the combined treatment of pyrrolidinedithiocarbamate and 5-FU for 2 months. All other treatment groups received both 5-FU and pyrrolidinedithiocarbamate for the remaining 3 weeks.
# as §5, §6
# Tumor tissues were fixed overnight in 4% (v/v) paraformaldehyde and embedded in paraffin according to standard histological procedures. […] The proliferative index (BrDU) and the apoptotic index (TUNEL) were estimated by the percentage of cells scored under a microscope at 200-fold magnification.
# [5] = system: HCT 116 cells; experiment: Soft-agar colony formation (anchorage-independent growth)
# Protocol: (§1) FIG. 1A is a graph of the concentration of PDTC versus soft-agar forming units×10^6 HCT 15 and HCT 116 cells (as a percent of control). […] Soft-agar colony formation was measured by seeding HCT 116 or HCT 15 cells in soft agar supplemented with either medium alone (control), or increasing concentrations of pyrrolidinedithiocarbamate (25–200 μM) or vitamin E (0.1–10 mM). Colonies were scored at the end of 10 days incubation at 37° C. Values are representative of three experiments carried out in quadruplicate.
# (§2) HCT 116 and HCT 15 cells were seeded in soft agar as described above containing increasing concentrations of either 5-FU (5×10^−8 to 5×10^−5 M) or doxorubicin (1×10^−9 to 1×10^−6 M), in the presence or absence of pyrrolidinedithiocarbamate (70 μM) or vitamin E (3 mM). Colonies were scored after 10 days and IC50 values were calculated as the concentration of 5-FU or doxorubicin required to reduce basal colony formation by 50% (±s.e.m.). Values are representative of three experiments carried out in quadruplicate.
# [6] = system: HCT 15 cells; experiment: as above
# Protocol: as §1, §2
# [7] = system: CRC cell; experiment: CRC cell plating efficiency; type: cell-based, human; conditions: 25–200 μM (pyrrolidinedithiocarbamate) and 0.1–10 mM (vitamin E), preliminary studies
# [8] = system: endogenous H2O2; experiment: Intracellular H2O2 levels by flow cytometry with dihydrorhodamine; type: cell-based, human; conditions: up to 24 hours
# Protocol: FIG. 1C is a bar graph of the hours after test compound treatment versus intracellular H2O2 levels. FIG. 1C illustrates the negative association between intracellular redox status and cell cycle perturbations. Changes in the intracellular redox status were determined by the measurement of endogenous H2O2 levels. Background fluorescence was subtracted from each reading. Values are expressed as corrected DHR mean per 10^4 cells±s.e.m. The percentage of G1 (circle) or apoptotic (TUNEL-positive: square) cells by flow cytometric analysis.
# HCT 15 cells were incubated with pyrrolidinedithiocarbamate (70 μM), vitamin E (3 mM), N-acetylcysteine (50 μM) or vitamin C (200 μM) for 24 hours. Endogenous H2O2 levels and cell cycle changes were measured as described in FIG. 1C. […] Values from cells transfected with the empty plasmid were subtracted from those obtained from the catalase-containing cells and were expressed as mean±s.e.m. from duplicate dishes.
# Intracellular H2O2 levels were analyzed by flow cytometry using […] (DHR) as a specific fluorescent dye probe [G. Rothe, A. Emmendorffer, A. Oser, J. Roesler, G. Valet, J Immun. […] Cellular rhodamine 123 fluorescence intensity of 1×10^4 cells was measured for each sample using a Becton-Dickenson FACS Vantage flow cytometer with the excitation source at 488 nm and emission wave length of 580 nm. […]
# [9] = system: HCT 15 CRC cells; experiment: Flow cytometric cell cycle analysis (propidium iodide); type: cell-based, human; conditions: HCT 15, pyrrolidinedithiocarbamate 70 μM or vitamin E 3 mM, 24 hours
# Protocol: (§3) FIG. 1B is a series of flow cytometric analyses that indicate that antioxidants induce G1 cell cycle arrest and apoptosis in CRC cells. […] Twenty-four hours following antioxidant exposure, cells were harvested and flow cytometric analysis performed.
# (§4) DNA Content of nuclei was determined as described [I. G. Nicoletti et al., J Immunol. Methods. 139, 271 (1991)] by lysing plasma membranes, staining nuclear DNA with propidium iodide ([…]), and quantitating the relative DNA content of nuclei using the Becton Dickinson FACSORT fluorescence-activated cell sorter. The proportion of nuclei in each phase of the cell cycle was determined using MODFIT-DNA analysis software. Detection of apoptotic cells either by fluorescence microscopy or by flow cytometry was performed using the ApopTag Plus In Situ Apoptosis Detection Kit (Oncor, Gaithersburg, Md.) as described in the manufacturer's protocol. Briefly, gigoxygenin-labeled nucleotides were added to free 3′OH groups of DNA produced by DNA fragmentation during apoptosis by terminal deoxynucleotidyl transferase (TdT). Digoxygenin was detected by a FTC-conjugated anti-digoxygenin antibody. Analysis was carried out using the fluorescence-activated cell sorter and FITC staining visualized using a fluorescence microscope (Zeiss). […]
# [10] = system: HCT 116 CRC cells; experiment: as above; type: cell-based, human; conditions: HCT 116, pyrrolidinedithiocarbamate 70 μM or vitamin E 3 mM, 24 hours
# Protocol: as §3, §4
# [11] = system: rats; conditions: intravenously; cited from earlier work
# [12] = system: PP2A; experiment: Dephosphorylation of radiolabeled C/EBPβ in DKO-1 lysates; type: biochemical, human; conditions: DKO-1 cell lysates (cells treated with 17 μM PDTC for three hours), ten minutes at 37 degrees C
# Protocol: FIG. 13 is a graph of time in hours versus percent radioactivity remaining on the protein substrate. […] The activity of PDTC is compared to I2 (a selective PP1 inhibitor), okadaic acid (an inhibitor of both PP2A and PP1), I2 and PDTC, and okadaic acid and PDTC. DKO-1 cells were grown in the presence of PDTC (test) or not (control). The cells were lysed, and then radioactive phosphorylated C/EBPβ was added. The test compounds were then added, and incubated with the lysate. The protein was collected and the amount of radioactive phosphate remaining in the protein measured.
# Cell lysates were prepared and treated with the following reagents in the presence of phosphorylated C/EBPβ in which the phosphate is radiolabeled, for ten minutes at 37 degrees C: I2 (a selective PP1 inhibitor), okadaic acid (a selective inhibitor of PP2A and PP1), PDTC, I2 and PDTC, and okadaic acid and PDTC. […] This effect is reversible following removal of the antioxidant.
# [13] = HCT 116 xenografts, weekly i.p. injections
# [14] = HCT 15 cells induced to overexpress C/EBPβ
# [15] = HCT 15 cells, absence of C/EBPβ overexpression
molecule,measurement,setting,value
"O=c1[nH]cc(F)c(=O)[nH]1 [5-FU, 5-fluorouracil]",tumor volume compared to saline-treated controls,[1]; [13],significantly reduced tumor volume
same,apoptotic index,[2]; [14],70%
same,apoptotic index,[2]; [15],20%
same,success rate,[3],15–20%
same,tumor size,"[4]; HCT 15-derived tumors, after 3 weeks of single agent treatment, before cross-over",1864+190 mm^3
"Cc1c(C)c2c(c(C)c1O)CCC(C)(C(=O)O)O2 (stereo not shown) [6-hydroxy-2.5,7,8-tetramethylchroman-2-carboxylic acid]",effect on the IC50 of 5-FU and doxorubicin,[5],decreased the IC50 for both 5-FU and doxorubicin
same,anchorage-independent growth,"[5]; HCT 116 cells, increasing amounts (25–200 μM pyrrolidinedithiocarbamate, 0.1–10 mM vitamin E)",dose-dependent reduction in anchorage-independent growth
same,IC50,"[5]; read-out: approximate IC50 in soft agar, HCT 116 cells, soft agar, 10 days",~3 mM
same,effect on the IC50 of 5-FU and doxorubicin,[6],decreased the IC50 for both 5-FU and doxorubicin
same,anchorage-independent growth,"[6]; HCT 15 cells, increasing amounts (25–200 μM pyrrolidinedithiocarbamate, 0.1–10 mM vitamin E)",dose-dependent reduction in anchorage-independent growth
same,IC50,"[6]; read-out: approximate IC50 in soft agar, HCT 15 cells, soft agar, 10 days",~3 mM
same,CRC cell plating efficiency,[7],no significant effect on CRC cell plating efficiency
same,increase of apoptotic index (TUNEL) of residual tumors,[1]; HCT 116 xenograft model,approximately 5 fold
same,effect of adding the antioxidant to 5-FU on tumor volume,"[1]; HCT 116 xenografts, weekly i.p. injections, combined with 5-FU (40 mg/kg)",significantly enhanced the effect of 5-FU
same,tumor volume compared to saline-treated controls,[1]; [13],significantly reduced tumor volume
same,endogenous H2O2 levels,"[8]; HCT 15 cells, N-acetylcysteine 50 μM, vitamin C 200 μM",significantly reduced endogenous H2O2 levels
same,endogenous H2O2 levels,[8]; HCT 116 cells,significantly reduced endogenous H2O2 levels
same,accumulation of cells in the G1 peak,[9],induced a significant accumulation of cells in the G1 peak
same,accumulation of cells in the G1 peak,[10],induced a significant accumulation of cells in the G1 peak
same,increase of apoptotic index (TUNEL) of residual tumors,[4]; HCT 15 xenograft model,approximately 5 fold
"CC(=O)N[C@@H](CS)C(=O)O [N-acetylcysteine, acetamido-mercaptopropionic acid]",LD50,[11],1140 mg/kg
COc1cccc2c1C(=O)c1c(O)c3c(c(O)c1C2=O)C[C@@](O)(C(=O)CO)C[C@@H]3O[C@H]1C[C@H](N)[C@H](O)[C@H](C)O1 [doxorubicin],apoptotic index,[2]; [14],80%
same,apoptotic index,[2]; [15],did not induce apoptosis
"C=C1[C@@H](O)[C@@H]2O[C@]3(CC[C@H](/C=C/[C@@H](C)[C@@H]4CC(C)=C[C@@]5(O[C@H](C[C@@](C)(O)C(=O)O)CC[C@H]5O)O4)O3)CC[C@H]2O[C@@H]1[C@@H](O)C[C@H](C)[C@H]1O[C@@]2(CCCCO2)CC[C@H]1C [okadaic acid, reference compound]",phosphatase activity toward phosphorylated C/EBPβ,[12],inhibited all DKO-1 phosphatase activity
B1,phosphatase activity toward phosphorylated C/EBPβ,[12],failed to protect C/EBPβ from dephosphorylation
